Measurements from ChEMBL document CHEMBL1124159, “Synthesis and structure-activity relationships of 2-sulfonamido-1,3,4,6,7,11b alpha-hexahydro-2H-benzo[a]quinolizines as alpha 2-adrenoceptor antagonists” (J Med Chem, 1988).

Columns and labels:
[1] = target: T1, Adrenergic receptor alpha-2 (Rattus norvegicus, UniProt P22086+P19328+P22909); assay: Antagonistic activity against alpha-2 adrenergic receptor in rat vas deferens; assay type: functional, tissue-based
T1 sequence (P22086 whole entry): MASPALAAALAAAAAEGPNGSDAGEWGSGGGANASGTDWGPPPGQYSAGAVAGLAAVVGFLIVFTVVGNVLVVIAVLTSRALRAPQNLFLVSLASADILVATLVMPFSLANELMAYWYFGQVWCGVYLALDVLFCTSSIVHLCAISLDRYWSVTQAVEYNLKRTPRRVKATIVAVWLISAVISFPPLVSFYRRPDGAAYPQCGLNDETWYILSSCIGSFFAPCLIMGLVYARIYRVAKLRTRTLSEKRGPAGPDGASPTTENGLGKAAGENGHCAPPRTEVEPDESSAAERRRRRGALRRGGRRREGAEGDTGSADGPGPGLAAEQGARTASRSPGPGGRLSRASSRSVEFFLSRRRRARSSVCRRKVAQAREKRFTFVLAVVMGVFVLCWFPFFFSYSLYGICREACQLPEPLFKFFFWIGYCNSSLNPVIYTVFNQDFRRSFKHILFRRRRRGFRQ
T1 sequence (P19328 whole entry): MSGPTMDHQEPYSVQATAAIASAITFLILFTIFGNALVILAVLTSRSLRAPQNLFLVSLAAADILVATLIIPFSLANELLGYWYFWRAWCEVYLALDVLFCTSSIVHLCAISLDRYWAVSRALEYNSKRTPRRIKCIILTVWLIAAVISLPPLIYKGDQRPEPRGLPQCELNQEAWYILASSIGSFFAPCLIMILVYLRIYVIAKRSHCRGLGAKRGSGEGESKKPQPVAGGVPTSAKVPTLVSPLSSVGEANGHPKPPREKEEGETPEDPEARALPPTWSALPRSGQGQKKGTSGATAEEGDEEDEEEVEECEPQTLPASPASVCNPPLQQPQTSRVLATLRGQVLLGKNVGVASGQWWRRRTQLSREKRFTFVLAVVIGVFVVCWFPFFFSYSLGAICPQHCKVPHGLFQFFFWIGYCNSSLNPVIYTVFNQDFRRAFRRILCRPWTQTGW
T1 sequence (P22909 whole entry): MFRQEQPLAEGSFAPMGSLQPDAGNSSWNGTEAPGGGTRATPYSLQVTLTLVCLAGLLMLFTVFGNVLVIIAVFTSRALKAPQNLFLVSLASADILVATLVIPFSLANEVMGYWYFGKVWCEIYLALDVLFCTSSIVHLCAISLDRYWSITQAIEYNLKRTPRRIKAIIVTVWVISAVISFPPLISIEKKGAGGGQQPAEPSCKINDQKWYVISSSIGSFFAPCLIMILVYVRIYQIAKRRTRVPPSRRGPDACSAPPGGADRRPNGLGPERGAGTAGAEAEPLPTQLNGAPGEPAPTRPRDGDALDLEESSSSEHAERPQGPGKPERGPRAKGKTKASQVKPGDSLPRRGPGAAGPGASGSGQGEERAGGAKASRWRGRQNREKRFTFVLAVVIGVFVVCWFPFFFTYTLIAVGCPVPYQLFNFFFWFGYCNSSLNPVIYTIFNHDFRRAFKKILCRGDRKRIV

[2] = target: T2, Adrenergic receptor alpha-1 (Rattus norvegicus, UniProt P15823+P23944+P43140); assay: Antagonistic activity against alpha-1-adrenoceptor in isolated rat anococcygeus muscle; assay type: functional, tissue-based, Muscle tissue
T2 sequence (P15823 whole entry): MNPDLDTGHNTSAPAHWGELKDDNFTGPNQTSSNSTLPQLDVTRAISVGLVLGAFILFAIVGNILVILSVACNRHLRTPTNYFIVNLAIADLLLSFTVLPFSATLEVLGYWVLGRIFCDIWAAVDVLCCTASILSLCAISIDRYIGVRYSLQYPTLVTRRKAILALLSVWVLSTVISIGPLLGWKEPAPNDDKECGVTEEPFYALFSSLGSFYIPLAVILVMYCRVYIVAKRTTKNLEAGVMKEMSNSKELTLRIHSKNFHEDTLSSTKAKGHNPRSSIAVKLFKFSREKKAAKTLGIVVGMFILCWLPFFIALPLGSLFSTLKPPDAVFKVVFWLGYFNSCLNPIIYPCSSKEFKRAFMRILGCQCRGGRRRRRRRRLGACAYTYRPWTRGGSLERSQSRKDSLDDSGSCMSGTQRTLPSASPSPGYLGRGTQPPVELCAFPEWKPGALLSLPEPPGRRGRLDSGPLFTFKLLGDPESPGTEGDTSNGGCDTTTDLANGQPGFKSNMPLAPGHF
T2 sequence (P23944 whole entry): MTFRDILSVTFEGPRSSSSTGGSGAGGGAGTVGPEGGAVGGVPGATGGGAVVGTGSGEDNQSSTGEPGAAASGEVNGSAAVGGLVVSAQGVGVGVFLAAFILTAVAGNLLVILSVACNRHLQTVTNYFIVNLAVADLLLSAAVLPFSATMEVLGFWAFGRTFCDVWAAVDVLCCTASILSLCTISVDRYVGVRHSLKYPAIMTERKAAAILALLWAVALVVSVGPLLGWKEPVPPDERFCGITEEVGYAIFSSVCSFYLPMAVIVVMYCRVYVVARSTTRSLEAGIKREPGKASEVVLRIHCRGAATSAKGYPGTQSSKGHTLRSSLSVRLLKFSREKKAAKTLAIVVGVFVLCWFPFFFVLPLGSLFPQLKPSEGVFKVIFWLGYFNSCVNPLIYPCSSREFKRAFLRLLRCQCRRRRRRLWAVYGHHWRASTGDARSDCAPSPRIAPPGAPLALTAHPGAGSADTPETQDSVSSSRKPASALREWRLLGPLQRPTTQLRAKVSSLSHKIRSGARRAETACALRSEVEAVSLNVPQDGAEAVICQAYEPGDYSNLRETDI
T2 sequence (P43140 whole entry): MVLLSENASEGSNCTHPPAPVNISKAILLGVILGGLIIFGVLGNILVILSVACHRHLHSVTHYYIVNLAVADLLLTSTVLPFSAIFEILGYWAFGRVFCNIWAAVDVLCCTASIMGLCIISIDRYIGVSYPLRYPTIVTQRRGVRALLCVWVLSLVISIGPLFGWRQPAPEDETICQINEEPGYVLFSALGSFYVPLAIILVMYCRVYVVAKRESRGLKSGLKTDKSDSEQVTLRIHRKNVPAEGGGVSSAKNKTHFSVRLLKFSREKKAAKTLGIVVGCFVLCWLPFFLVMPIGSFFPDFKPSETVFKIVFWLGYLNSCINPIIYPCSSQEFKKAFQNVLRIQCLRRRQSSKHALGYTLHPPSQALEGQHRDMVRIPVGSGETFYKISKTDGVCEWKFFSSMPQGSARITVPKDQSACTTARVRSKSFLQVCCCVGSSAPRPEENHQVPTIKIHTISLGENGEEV

[3] = target: T2, Adrenergic receptor alpha-1; assay: Antagonistic activity against alpha-1 adrenergic receptor in rat anococcygeus muscle

| pA2 [1] | pA2 [2] | pA2 [3] | Structure (SMILES) |
| --- | --- | --- | --- |
| 6.27 | 5.33 |  | CS(=O)(=O)N[C@@H]1CCN2CCc3ccccc3[C@@H]2C1 |
| 8.5 |  | 7.2 | CCCS(=O)(=O)N(C)[C@@H]1CCN2CCc3ccccc3[C@@H]2C1 (stereo in doubt) |
| 8.05 |  | 6.9 | CC(C)CS(=O)(=O)N(C)[C@@H]1CCN2CCc3ccccc3[C@@H]2C1 (stereo in doubt) |
